The record followed here is ChEMBL document CHEMBL4130428, “Recent advances in polysaccharides for osteoarthritis therapy” (2017).

Test [1] concerns Homo sapiens. The test can be described thus: Anti-osteoarthritis activity in knee osteoarthritis patient assessed as cartilage volume in medial area dosed orally for 2 consecutive years by MRI method relative to control. The test is classed as functional.
Test [2] deals with Homo sapiens. The test can be described thus: Anti-osteoarthritis activity in knee osteoarthritis patient assessed as cartilage volume in medial condylar area dosed orally for 2 consecutive years by MRI method relative to control. The test is classed as functional.

As to `Cc1ccc(-c2cc(C(F)(F)F)nn2-c2ccc(S(N)(=O)=O)cc2)cc1` [CELECOXIB], the entries for the “inhibition (INH)” value in the test on Homo sapiens [1] and in the test with Homo sapiens [2] were 8.1% and 7.7%, respectively.
